From publication PMC6993587, “Detection of EXP1-Specific CD4+ T Cell Responses Directed Against a Broad Range of Epitopes Including Two Promiscuous MHC Class II Binders During Acute Plasmodium falciparum Malaria” (Frontiers in Immunology, 2020)
Ends that are not written are not given here.

Columns and labels:
Assay in all cases: In vitro HLA binding assay with purified HLA-DR molecules
HLA-DR DRB1*09:01 = HLA-DR DRB1*09:01 (Homo sapiens, UniProt P01903+P01911, A100R/A103E/D57H/D86V/F55Y/F60I/F76Y/I96F/K127E/L162R/M171V/P40D/Q125H/Q99R/R33Q/R42F/S133A/S66N/T210M/V115G/W38K/Y107V/Y59G/Y89S)
HLA-DR DRB1*04:05 = HLA-DR DRB1*04:05 (Homo sapiens, UniProt P01903+P01911, A100R/A169T/D86S/F76Y/I96L/K127E/L162R/M171V/N62H/P40V/Q125Y/R42H/S133A/S149N/S66Y/V115G/V209L/W38E); conditions: purified HLA-DR molecule; high affinity binding = IC50 <1,000 nM
Experimental: (§1) In vitro binding assays with 14 of the peptides that elicited a response were performed using purified HLA-DR molecules, as previously described (Table 3) ([37]). MHC class II in silico binding predictions were defined, using the IEDB analysis resource ([38]–[40]), combining predictions from the ANN ([41], [42]) and SMM ([43]) algorithms (Supplementary Table 2A).
(§2) To test this hypothesis, we measured the in vitro capacity of the most frequently recognized EXP1 peptides to bind to a panel of 17 of the most prevalent human HLA-DR molecules, since the majority of HLA class II restricted CD4+ T cell responses are presented by these molecules ([49], [50]). Peptides with an IC50 of 1,000 nM or lower, a threshold previously found associated with the vast majority of HLA class II-restricted T cell epitopes, were considered binders to the respective DR molecule ([51]–[53]). […] These include EXP1-P14 which bound to five, EXP1-P15 to 13, EXP1-P16 to 10 and EXP1-P17 to nine different HLA molecules (Table 3).

HLA-DR DRB1*15:01 = HLA-DR DRB1*15:01 (Homo sapiens, UniProt P01903+P01911); conditions: purified HLA-DR molecule; high affinity binding = IC50 <1,000 nM
Experimental: as §1, §2

HLA-DR DRB1*04:01 = HLA-DR DRB1*04:01 (Homo sapiens, UniProt P01903+P01911, A100K/A169T/F76Y/I96L/K127E/L162R/M171V/N62H/P40V/Q125Y/R42H/S133A/S149N/S66Y/V115G/V209L/W38E); conditions: purified HLA-DR molecule; high affinity binding = IC50 <1,000 nM
Experimental: as §1, §2

HLA-DR DRB1*10:01 = HLA-DR DRB1*10:01 (Homo sapiens, UniProt P01903+P01911, A100R/A169T/D57E/F55L/F60V/F69Y/F76Y/I96L/L162R/M171V/P40V/Q260P/Q39E/Q99R/R195Q/R42F/S149N/S66Y/T210M/V115G/V67A/W38E/Y59R/Y61H); conditions: purified HLA-DR molecule; high affinity binding = IC50 <1,000 nM
Experimental: as §1, §2

HLA-DR DRB1*07:01 = HLA-DR DRB1*07:01 (Homo sapiens, UniProt P01903+P01911, A100R/A102G/A103Q/D57E/D86V/E43K/F76Y/K127E/L162R/M171V/P40G/Q125H/Q99D/R33Q/R42Y/R54Q/S133A/S66F/T210M/V115G/Y107V/Y59L/Y89S); conditions: purified HLA-DR molecule; high affinity binding = IC50 <1,000 nM
Experimental: as §1, §2

HLA-DR DRB1*04:04 = HLA-DR DRB1*04:04 (Homo sapiens, UniProt P01903+P01911, A100R/A169T/F76Y/I96L/K127E/L162R/M171V/N62H/P40V/Q125Y/R42H/S133A/S149N/S66Y/V209L/W38E); conditions: purified HLA-DR molecule; high affinity binding = IC50 <1,000 nM
Experimental: as §1, §2

HLA-DR DRB1*01:01 = HLA-DR DRB1*01:01 (Homo sapiens, UniProt P01903+P01911, A100R/D57E/F55L/F60I/F76Y/I96L/L162R/M171V/P40L/Q125E/R42F/V115G/Y59C); conditions: purified HLA-DR molecule; high affinity binding = IC50 <1,000 nM
Experimental: as §1, §2

HLA-DR DRB5*01:01 = HLA-DR DRB5*01:01 (Homo sapiens, UniProt P01903+Q30154); conditions: purified HLA-DR molecule; high affinity binding = IC50 <1,000 nM
Experimental: as §1, §2

HLA-DR DRB4*01:01 = HLA-DR DRB4*01:01 (Homo sapiens, UniProt P01903+P13762, G164S); conditions: purified HLA-DR molecule; high affinity binding = IC50 <1,000 nM
Experimental: as §1, §2

HLA-DR DRB1*13:01 = HLA-DR DRB1*13:01 (Homo sapiens, UniProt P01903+P01911, A100E/A169T/K41T/L162R/M171V/P40S/Q125H/Q178H/Q39Y/Q99D/R42S/S66N/T262R/W38E/Y61H); conditions: purified HLA-DR molecule; high affinity binding = IC50 <1,000 nM
Experimental: as §1, §2

HLA-DR DRB1*11:01 = HLA-DR DRB1*11:01 (Homo sapiens, UniProt P01903+P01911, A100R/A169T/A87E/I96F/K41T/L162R/M171V/P40S/Q125H/Q178H/Q39Y/Q99D/R42S/S66Y/T262R/V115G/W38E); conditions: purified HLA-DR molecule; high affinity binding = IC50 <1,000 nM
HLA-DR DRB1*11:01, sequence (P01903 26-254 limits assumed, other chains not shown): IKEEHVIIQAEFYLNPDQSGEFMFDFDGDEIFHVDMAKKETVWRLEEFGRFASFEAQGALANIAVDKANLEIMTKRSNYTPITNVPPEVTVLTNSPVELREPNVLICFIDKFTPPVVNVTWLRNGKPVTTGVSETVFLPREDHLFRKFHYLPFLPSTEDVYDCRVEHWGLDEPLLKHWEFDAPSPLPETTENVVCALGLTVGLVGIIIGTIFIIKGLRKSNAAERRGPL
Experimental: as §1, §2

HLA-DR DRB1*03:01 = HLA-DR DRB1*03:01 (Homo sapiens, UniProt P01903+P01911, A100K/A102G/A103R/A169T/F55Y/I96L/K41T/L162R/M171V/P40S/Q125H/Q178H/Q39Y/R42S/S66N/T106N/T262R/W38E/Y61H); conditions: purified HLA-DR molecule; high affinity binding = IC50 <1,000 nM
HLA-DR DRB1*03:01, sequence (P01903 26-254, other chains not shown): as the sequence (P01903 26-254 limits assumed, other chains not shown) above
Experimental: as §1, §2

HLA-DR DRB3*01:01 = HLA-DR DRB3*01:01 (Homo sapiens, UniProt P01903+P79483); conditions: purified HLA-DR molecule; high affinity binding = IC50 <1,000 nM
Experimental: as §1, §2

HLA-DR DRB1*08:02 = HLA-DR DRB1*08:02 (Homo sapiens, UniProt P01903+P01911, A100R/A103L/A169T/F76Y/H45Y/I96F/K41T/L162R/M171V/P40S/Q125H/Q178H/Q39Y/Q99D/R218S/R42G/S66Y/V115G/W38E); conditions: purified HLA-DR molecule; high affinity binding = IC50 <1,000 nM
Experimental: as §1, §2

HLA-DR DRB1*13:02 = HLA-DR DRB1*13:02 (Homo sapiens, UniProt P01903+P01911, A100E/A169T/K41T/L162R/M171V/P40S/Q125H/Q178H/Q39Y/Q99D/R42S/S66N/T262R/V115G/W38E/Y61H); conditions: purified HLA-DR molecule; high affinity binding = IC50 <1,000 nM
HLA-DR DRB1*13:02, sequence (P01903 26-254 limits assumed, other chains not shown): as above
Experimental: as §1, §2

HLA-DR DRB3*02:02 = HLA-DR DRB3*02:02 (Homo sapiens, UniProt P01903+P79483, A212P/D57E/F66Y/L67A/R103Q/R218S/R40L/S89Y/T80R/V86D/Y55F/Y59H); conditions: purified HLA-DR molecule; high affinity binding = IC50 <1,000 nM
HLA-DR DRB3*02:02, sequence (P01903 26-254 limits assumed): as the sequence (P01903 26-254 limits assumed, other chains not shown) above
HLA-DR DRB3*02:02, sequence (P79483 30-266 R40L/Y55F/D57E/Y59H/F66Y/L67A/T80R/V86D/S89Y/R103Q/A212P/R218S limits assumed): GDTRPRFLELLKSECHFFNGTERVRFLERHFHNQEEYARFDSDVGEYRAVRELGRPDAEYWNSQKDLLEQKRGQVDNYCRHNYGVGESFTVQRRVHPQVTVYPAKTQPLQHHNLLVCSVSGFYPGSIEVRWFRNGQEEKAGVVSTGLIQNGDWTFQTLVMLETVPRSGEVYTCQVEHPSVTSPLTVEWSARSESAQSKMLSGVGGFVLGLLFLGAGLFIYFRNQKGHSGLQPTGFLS
Experimental: as §1, §2

| Molecule | IC50 (HLA-DR DRB1*09:01) | IC50 (HLA-DR DRB1*04:05) | IC50 (HLA-DR DRB1*15:01) | IC50 (HLA-DR DRB1*04:01) | IC50 (HLA-DR DRB1*10:01) | IC50 (HLA-DR DRB1*07:01) | IC50 (HLA-DR DRB1*04:04) | IC50 (HLA-DR DRB1*01:01) | IC50 (HLA-DR DRB5*01:01) | IC50 (HLA-DR DRB4*01:01) | IC50 (HLA-DR DRB1*13:01) | IC50 (HLA-DR DRB1*11:01) | IC50 (HLA-DR DRB1*03:01) | IC50 (HLA-DR DRB3*01:01) | IC50 (HLA-DR DRB1*08:02) | IC50 (HLA-DR DRB1*13:02) | IC50 (HLA-DR DRB3*02:02) |
| --- | --- | --- | --- | --- | --- | --- | --- | --- | --- | --- | --- | --- | --- | --- | --- | --- | --- |
| CC(C)C[C@H](NC(=O)CNC(=O)[C@@H](NC(=O)CNC(=O)CNC(=O)[C@H](CC(C)C)NC(=O)[C@H](CC(C)C)NC(=O)[C@@H](NC(=O)[C@@H](N)[C@@H](C)O)C(C)C)C(C)C)C(=O)N[C@H](C(=O)N[C@@H](CC(C)C)C(=O)N[C@@H](Cc1ccc(O)cc1)C(=O)N[C@@H](CC(N)=O)C(=O)N[C@H](C(=O)N[C@@H](CCC(=O)O)C(=O)O)[C@@H](C)O)C(C)C [EXP1-P19] | 4.45 µM | 4.95 µM | 0.219 µM | 2.44 µM | 34 µM | 3.95 µM | 20.1 µM | 0.0086 µM | 1.18 µM | 8.28 µM | 7.44 µM |  |  |  |  |  |  |
| RKSKYKLATSVLAGLL [EXP1-P15] | 0.0039 µM | 0.0074 µM | 0.195 µM | 0.0012 µM | 0.0018 µM | 0.0014 µM | 0.048 µM | 0.0011 µM | 0.001 µM | 0.23 µM |  | 0.007 µM | 5.82 µM | 0.047 µM | 11.9 µM | 39 µM | 0.002 µM |
| SKKKNKKGSGEPLID [EXP1-P08] |  |  |  |  |  |  |  |  |  |  |  |  |  |  | 30 µM |  |  |
| VLAGLLGVVSTVLLGGV [EXP1-P17] | 0.012 µM | 0.824 µM | 0.005 µM | 1.26 µM | 0.418 µM | 0.0046 µM | 0.047 µM | 0.023 µM | 0.238 µM | 2.39 µM | 14.2 µM | 13.7 µM |  | 28.5 µM | 0.049 µM | 33.4 µM | 14.9 µM |
| CC[C@H](C)[C@H](NC(=O)[C@@H](NC(=O)[C@H](Cc1ccccc1)NC(=O)[C@H](Cc1ccccc1)NC(=O)[C@H](CC(C)C)NC(=O)[C@H](C)NC(=O)[C@H](CC(C)C)NC(=O)[C@H](Cc1ccccc1)NC(=O)[C@H](Cc1ccccc1)NC(=O)[C@@H](NC(=O)[C@H](CO)NC(=O)[C@H](CC(C)C)NC(=O)[C@@H](NC(=O)[C@H](CCCCN)NC(=O)[C@@H](N)CCSC)[C@@H](C)CC)C(C)C)[C@@H](C)CC)C(=O)O [EXP1-P01] | 3.59 µM | 3.52 µM | 3.36 µM | 5.05 µM | 4.94 µM | 9.19 µM | 9.13 µM | 21.4 µM | 10.9 µM | 25.2 µM | 3.12 µM | 39.6 µM |  |  | 5.45 µM |  |  |
| GVGLVLYNTEKGRHP [EXP1-P20] |  | 2.95 µM | 0.024 µM | 0.026 µM | 7.97 µM |  | 0.0091 µM | 8.94 µM | 0.539 µM | 0.081 µM | 0.122 µM | 0.183 µM | 4.49 µM |  | 0.0093 µM | 17.1 µM | 4.99 µM |
| SVFFLALFFIIFNKE [EXP1-P02] | 0.648 µM | 4.25 µM | 1.55 µM | 4.2 µM | 3.99 µM | 7.99 µM | 2.61 µM | 11.7 µM | 6.95 µM | 17.4 µM | 6.46 µM |  | 12.3 µM | 10.6 µM | 2.97 µM |  |  |
| GSGVSSKKKNKKGSG [EXP1-P07] |  |  |  |  |  |  |  |  | 4.56 µM |  | 1.98 µM |  |  |  |  |  |  |
| LGVVSTVLLGGVGLV [EXP1-P18] | 0.491 µM | 5.02 µM | 0.3 µM | 2.05 µM | 1.89 µM | 0.433 µM | 0.806 µM | 0.019 µM | 2.47 µM | 0.194 µM | 8.56 µM | 6.63 µM |  | 13.5 µM | 1.81 µM | 3.23 µM |  |
| VEVNKRKSKYKLATS [EXP1-P14] | 0.077 µM | 0.083 µM | 6.1 µM | 0.058 µM | 0.295 µM | 8.3 µM |  | 2.35 µM | 0.089 µM |  | 5.74 µM |  |  | 13.9 µM |  |  | 5.84 µM |
| EPLIDVHDLISDMIK [EXP1-P10] |  | 31 µM | 29.2 µM | 27.5 µM |  |  | 1.11 µM | 6.02 µM |  | 0.162 µM |  |  | 6.77 µM | 7.96 µM | 2.84 µM |  |  |
| KEEELVEVNKRKSKY [EXP1-P13] |  |  |  |  |  |  |  |  | 1.12 µM | 17.9 µM | 1.19 µM | 0.142 µM |  |  |  |  |  |
| NANPDADSESNGEPN [EXP1-P25] |  | 18.2 µM | 1.1 µM | 16.7 µM | 33.6 µM |  | 12.5 µM | 19.6 µM | 31.1 µM | 12 µM |  | 23.2 µM |  |  | 4.01 µM |  |  |
| KLATSVLAGLLGVVS [EXP1-P16] | 1.36 µM | 0.539 µM | 2.27 µM | 0.38 µM | 0.152 µM | 0.133 µM | 0.454 µM | 0.011 µM | 0.244 µM | 0.567 µM | 32.4 µM | 0.81 µM | 10.8 µM | 6.1 µM | 1.15 µM |  | 0.481 µM |
